Measurements reported in BindingDB's records for patent US20250313563 (The Broad Institute, 2025).
“And” between values parts separate entries of the source, which are not always exact repeats. Equal values may be shown once.

Experiments:
[1] = molecular target: Glycogen synthase kinase-3 alpha (Homo sapiens, UniProt P49840); assay: TR-FRET Assay
In short: (§1)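 Compound was preincubated 30 min in assay buffer before the kinase reaction, which was quenched with EDTA. Phosphorylation was detected by TR-FRET after adding a solution of 40 nM streptavidin-d2 and 2 nM Tb-labelled anti-pSer641 antibody.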

[2] = molecular target: Glycogen synthase kinase-3 beta (Homo sapiens, UniProt P49841); assay: TR-FRET Assay
In short: as §1

Sequence of Glycogen synthase kinase-3 alpha (P49840 whole entry): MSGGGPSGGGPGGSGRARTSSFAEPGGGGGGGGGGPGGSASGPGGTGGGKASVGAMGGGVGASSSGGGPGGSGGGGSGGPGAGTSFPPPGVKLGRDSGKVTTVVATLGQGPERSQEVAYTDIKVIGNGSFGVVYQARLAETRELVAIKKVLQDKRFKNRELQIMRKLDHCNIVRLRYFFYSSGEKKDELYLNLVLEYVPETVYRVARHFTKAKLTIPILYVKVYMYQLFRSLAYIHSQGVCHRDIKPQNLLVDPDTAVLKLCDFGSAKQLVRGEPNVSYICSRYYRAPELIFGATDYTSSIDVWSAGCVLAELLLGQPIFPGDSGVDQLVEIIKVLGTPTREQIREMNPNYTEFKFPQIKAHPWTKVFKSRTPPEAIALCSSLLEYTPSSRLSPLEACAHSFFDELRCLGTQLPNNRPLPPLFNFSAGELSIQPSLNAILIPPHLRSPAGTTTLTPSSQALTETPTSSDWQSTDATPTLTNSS
Sequence of Glycogen synthase kinase-3 beta (P49841 whole entry): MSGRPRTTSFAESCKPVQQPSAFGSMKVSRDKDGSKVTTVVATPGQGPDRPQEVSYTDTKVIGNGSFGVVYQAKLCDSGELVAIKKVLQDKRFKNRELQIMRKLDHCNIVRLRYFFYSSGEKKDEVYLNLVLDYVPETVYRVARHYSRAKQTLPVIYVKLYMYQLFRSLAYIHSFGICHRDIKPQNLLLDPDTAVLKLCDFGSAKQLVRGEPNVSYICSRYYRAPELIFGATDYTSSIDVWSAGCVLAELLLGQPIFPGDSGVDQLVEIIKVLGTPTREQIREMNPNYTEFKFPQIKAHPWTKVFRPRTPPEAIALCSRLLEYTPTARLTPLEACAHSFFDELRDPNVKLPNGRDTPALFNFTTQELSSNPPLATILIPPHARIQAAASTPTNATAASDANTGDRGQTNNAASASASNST

Structure (SMILES) | IC50 [1] | IC50 [2]
CCC1(c2cccc(N3CCCCC3)c2)C2=C(CC(C)(C)CC2=O)NC2N=NC(C)=C21 (stereo unspecified) [US20250313563, Compound 877311] | < 100 nM | < 100 nM
Cc1cc(S(=O)(=O)N2CCC3(CC2)C2=C(N=NC2)NC2=C3C(=O)CC(C)(C)C2)c(C)s1 [US20250313563, Compound 945674] | < 100 nM | 100 to 1000 nM
CC1(C)CC(=O)C2=C(C1)NC1=C(CN=N1)C21CN(S(=O)(=O)c2ccccn2)C1 [US20250313563, Compound 913262] | < 100 nM | < 100 nM
CC(=O)N1CC[C@]2(C1)C1=C(N=NC1)NC1=C2C(=O)CC(C)(C)C1 [US20250313563, Compound 889583] | 1000 to 5000 nM | > 5000 nM
CC[C@@]1(c2cccc(-c3cnnc(C)c3)c2)C2=CN=NC2NC2=C1C(=O)NC(C)(C)C2 (stereo partly specified) [US20250313563, Compound 944074] | < 100 nM and 100 to 1000 nM | 100 to 1000 nM and > 5000 nM
CC1(C)CC(=O)C2=C(C1)NC1=C(CN=N1)[C@@]21CCO[C@H](C(F)(F)F)C1 [US20250313563, Compound 884022] | 100 to 1000 nM | 100 to 1000 nM
CC[C@@H]1C[C@@]2(CO1)C1=C(N=NC1)NC1=C2C(=O)CC(C)(C)C1 [US20250313563, Compound 913215] | 100 to 1000 nM | 1000 to 5000 nM
CC1(C)CC(=O)C2=C(C1)NC1N=NC(C(F)(F)F)=C1C21CCCOc2ccccc21 (stereo unspecified) [US20250313563, Compound 790632] | > 5000 nM | > 5000 nM
CC[C@@]1(c2cccc(-c3ncnn3C)c2)C2=CN=NC2NC2=C1C(=O)CC(C)(C)C2 (stereo partly specified) [US20250313563, Compound 945482] | 1000 to 5000 nM and > 5000 nM | > 5000 nM
CC1(C)CC(=O)C2=C(C1)NC1N=NC(CCC(F)(F)F)=C1[C@@]21CCc2c(F)cccc21 (stereo partly specified) [US20250313563, Compound 874323] | 1000 to 5000 nM | 1000 to 5000 nM
CC(C)(C)CC1=C2C(N=N1)NC1=C(C(=O)CC(C)(C)C1)[C@@]21COc2ccccc21 (stereo partly specified) [US20250313563, Compound 117093] | 1000 to 5000 nM | 100 to 1000 nM
Cc1cccc2c1CC[C@@]21C2=C(N=NC2)NC2=C1C(=O)CC(C)(C)C2 [US20250313563, Compound 913136] | < 100 nM | 100 to 1000 nM
CCC1(c2ccccc2)C2=C(N=NC2)NC2=C1C(=O)CC(C)(C(F)(F)F)C2 (stereo unspecified) [US20250313563, Compound 816796] | 100 to 1000 nM | 1000 to 5000 nM
Cc1cccc(C2(C)C3=C(N=NC3)NC3=C2C(=O)CC(C)(C)C3)c1 (stereo unspecified) [US20250313563, Compound 785736] | < 100 nM | 100 to 1000 nM
CC(C)(C)CC1=C2C(N=N1)NC1=C(C(=O)CC(C)(C)C1)C21CCCc2ccccc21 (stereo unspecified) [US20250313563, Compound 810495] | 100 to 1000 nM | < 100 nM
CC1(C)CC(=O)C2=C(C1)NC1=C(CN=N1)C21CCN(S(=O)(=O)c2ccccc2)CC1 [US20250313563, Compound 874530] | < 100 nM and 100 to 1000 nM | < 100 nM and 1000 to 5000 nM
CC1(C)CC(=O)C2=C(C1)NC1N=NC=C1[C@]21CCCN(S(=O)(=O)Cc2ccccc2)CC1 (stereo partly specified) [US20250313563, Compound 945483] | 100 to 1000 nM | 100 to 1000 nM
Cn1ccc(CN2CC3(C2)C2=C(N=NC2)NC2=C3C(=O)CC(C)(C)C2)n1 [US20250313563, Compound 932652] | > 5000 nM | > 5000 nM
CCC1(c2cccc(N(C)C(O)C3CC3)c2)C2=CN=NC2NC2=C1C(=O)CC(C)(C)C2 (stereo unspecified) [US20250313563, Compound 912067] | < 100 nM | < 100 nM
CC1(C)CC(=O)C2=C(C1)NC1=C(CN=N1)[C@]2(C)c1cc(C(F)(F)F)ccc1F [US20250313563, Compound 816798] | < 100 nM | 100 to 1000 nM
CC1(C)CC(=O)C2=C(C1)NC1=C(CN=N1)C2(C)c1cccc(-c2ccncc2)c1 (stereo unspecified) [US20250313563, Compound 790730] | < 100 nM | 100 to 1000 nM
CCC1(c2cccc(C(F)(F)F)c2)C2=CN=NC2NC2=C1C(=O)NC(C(C)(C)C)C2 (stereo unspecified) [US20250313563, Compound 945635] | < 100 nM | 100 to 1000 nM
CCC1(c2cccc(-c3cncn3C(C)C)c2)C2=CN=NC2NC2=C1C(=O)CC(C)(C)C2 (stereo unspecified) [US20250313563, Compound 944026] | < 100 nM | < 100 nM
CC(C)CC(=O)N1CC2(C1)CC1(CO2)C2=C(N=NC2)NC2=C1C(=O)CC(C)(C)C2 (stereo unspecified) [US20250313563, Compound 947302] | < 100 nM | < 100 nM
C[C@@H]1CCC[C@@]12C1=CN=NC1NC1=C2C(=O)CC(C)(C)C1 (stereo partly specified) [US20250313563, Compound 874319] | 1000 to 5000 nM | 1000 to 5000 nM
CC1(C)CC(=O)C2=C(C1)NC1=C(CN=N1)C21CN(S(=O)(=O)c2cccc(F)c2)C1 [US20250313563, Compound 918278] | < 100 nM | < 100 nM
CC[C@]1(c2cccc(-c3ccncc3)c2)C2=CN=NC2NC2=C1C(=O)CC(C)(C)C2 (stereo partly specified) [US20250313563, Compound 801412] | > 5000 nM | > 5000 nM
CO[C@H]1C[C@@]2(C1)C1=C(N=NC1)NC1=C2C(=O)CC(C)(C)C1 [US20250313563, Compound 901473] | > 5000 nM | > 5000 nM

Now from value to molecule:

IC50 [1] | IC50 [2] | Structure (SMILES)
1000 to 5000 nM | > 5000 nM | CC[C@]1(c2cccc(-c3ccnc4cnccc34)c2)C2=CN=NC2NC2=C1C(=O)NC(C)(C)C2 (stereo partly specified) [US20250313563, Compound 948819]
100 to 1000 nM | 100 to 1000 nM | CC[C@]1(c2cccc(C(F)(F)F)c2)C2=CN=NC2NC2=C1C(=O)N(CCOC)CC2 (stereo partly specified) [US20250313563, Compound 949599]
100 to 1000 nM | 1000 to 5000 nM | CC[C@@]1(c2cccc(C(F)(F)F)c2)C2=CN=NC2NC2=C1C(=O)N(c1cnsc1)CC2 (stereo partly specified) [US20250313563, Compound 951742]
< 100 nM | 100 to 1000 nM | CC[C@@]1(c2cccc(-c3c(C)cncc3C)c2)C2=CN=NC2NC2=C1C(=O)CC(C)(C)C2 (stereo partly specified) [US20250313563, Compound 947659]
< 100 nM | < 100 nM | CC1(C)CC(=O)C2=C(C1)NC1=C(CN=N1)C21CCN(S(=O)(=O)C2=CC=C3CC=CC=C3N2)CC1 [US20250313563, Compound 947476]
< 100 nM and 100 to 1000 nM | < 100 nM and 1000 to 5000 nM | CC[C@@]1(c2cccc(-c3ccnc(C)c3Cl)c2)C2=CN=NC2NC2=C1C(=O)NC(C)(C)C2 (stereo partly specified) [US20250313563, Compound 948361]
< 100 nM | < 100 nM | CCC1(c2cccc(-c3ccnc(OC)n3)c2)C2=CN=NC2NC2=C1C(=O)CC(C)(C)C2 (stereo unspecified) [US20250313563, Compound 948092]
< 100 nM | < 100 nM | CC[C@@]1(c2cccc(-c3cc(C)ncc3F)c2)C2=C(CC(C)(C)NC2=O)NC2N=NC(C)=C21 (stereo partly specified) [US20250313563, Compound 949338]
< 100 nM | < 100 nM | CC[C@@]1(c2cccc(-c3cn(C)nc3C(F)(F)F)c2)C2=CN=NC2NC2=C1C(=O)NC(C)(C)C2 (stereo partly specified) [US20250313563, Compound 950563]
100 to 1000 nM | 1000 to 5000 nM | CCC1(c2cccc(-c3ccnc(C)c3C)c2)C2=C(CC(C)(C)NC2=O)NC2N=NC(C)=C21 (stereo unspecified) [US20250313563, Compound 947399]
< 100 nM | < 100 nM | CC[C@]1(c2cccc(-c3ccncc3C)c2)C2=CN=NC2NC2=C1C(=O)N[C@]1(CCOC1)C2 (stereo partly specified) [US20250313563, Compound 948640]
< 100 nM and 100 to 1000 nM | < 100 nM and 1000 to 5000 nM | CC[C@@]1(c2cccc(-c3ccncc3C)c2)C2=CN=NC2NC2=C1C(=O)NC1(CCC1)C2 (stereo partly specified) [US20250313563, Compound 948512]
< 100 nM | < 100 nM | CC[C@]1(c2cccc(Cc3ncccn3)c2)C2=CN=NC2NC2=C1C(=O)CC(C)(C)C2 (stereo partly specified) [US20250313563, Compound 947498]
< 100 nM | < 100 nM | Cc1ccc(S(=O)(=O)N2CCC3(CC2)C2=C(N=NC2)NC2=C3C(=O)CC(C)(C)C2)c(C)c1 [US20250313563, Compound 947468]
< 100 nM | < 100 nM and 100 to 1000 nM | CC[C@@]1(c2cccc(-c3ccncc3C)c2)C2=CN=NC2NC2=C1C(=O)NC1(CCCC1)C2 (stereo partly specified) [US20250313563, Compound 948022]
< 100 nM | 100 to 1000 nM | CC[C@]1(c2cccc(C(F)(F)F)c2)C2=CN=NC2NC2=C1C(=O)N(c1cnsc1)CC2 (stereo partly specified) [US20250313563, Compound 951733]
< 100 nM and 100 to 1000 nM | < 100 nM and 100 to 1000 nM | Cc1cc(C)cc(C(=O)N2CC3(C2)C[C@@]2(CO3)C3=C(N=NC3)NC3=C2C(=O)CC(C)(C)C3)c1 [US20250313563, Compound 948223]
< 100 nM and 100 to 1000 nM | < 100 nM and 100 to 1000 nM | CCC1(c2cccc(C(F)(F)F)c2)C2=C(NC3=NN=CC31)c1ccccc1C2=O (stereo unspecified) [US20250313563, Compound 948205]
< 100 nM | 100 to 1000 nM | CC[C@@]1(c2cccc(-c3c(F)cncc3OC)c2)C2=CN=NC2NC2=C1C(=O)CC(C)(C)C2 (stereo partly specified) [US20250313563, Compound 947512]
100 to 1000 nM | 1000 to 5000 nM | Cc1ccc(C(=O)N2CC3(C2)C[C@@]2(CO3)C3=C(N=NC3)NC3=C2C(=O)CC(C)(C)C3)cc1C [US20250313563, Compound 948039]
100 to 1000 nM | 100 to 1000 nM | CC[C@]1(c2cccc(C(C)C)c2)C2=C(CC(C)(C)NC2=O)NC2N=NC(C(F)(F)F)=C21 (stereo partly specified) [US20250313563, Compound 950493]
< 100 nM and 100 to 1000 nM | < 100 nM and 100 to 1000 nM | CCC1(c2cccc(-c3cc(C)nnc3C)c2)C2=C(CC(C)(C)NC2=O)NC2N=NC(C(F)(F)F)=C21 (stereo unspecified) [US20250313563, Compound 949174]
< 100 nM | 100 to 1000 nM | CC[C@]1(c2cccc(Cc3ncccc3C(F)(F)F)c2)C2=CN=NC2NC2=C1C(=O)CC(C)(C)C2 (stereo partly specified) [US20250313563, Compound 947664]
< 100 nM | < 100 nM | CC[C@@]1(c2cccc(-c3cnn(C)c3C)c2)C2=C(CC(C)(C)NC2=O)NC2N=NC(C(F)(F)F)=C21 (stereo partly specified) [US20250313563, Compound 947819]
< 100 nM and 100 to 1000 nM | 100 to 1000 nM and > 5000 nM | CC[C@@]1(c2cccc(C(F)F)c2)C2=CN=NC2NC2=C1C(=O)NC(C)(C)C2 (stereo partly specified) [US20250313563, Compound 949006]
